Assay results taken from publication PMC9851200, “Multiparameter phenotypic screening for endogenous TFEB and TFE3 translocation identifies novel chemical series modulating lysosome function” (Autophagy, 2022).
Where two headings read alike, the source gives them in different places.

Columns and labels:
Details in all cases: PKIS2 primary screening
endogenous TFE3 = test: TFE3 nuclear translocation, immunocytochemistry high-content imaging; assay type: cell-based
SH-SY5Y cells [1] = tested on: SH-SY5Y cells; note: reference of the scale not given here
SH-SY5Y cells [2] = test: AK (adenylate kinase) release ToxiLight cytotoxicity assay; note: reference of the scale not given here
endogenous TFEB = test: TFEB nuclear translocation, immunocytochemistry high-content imaging; assay type: cell-based
SH-SY5Y cells [3] = test: Nuclear count from microscopy images (cellular growth and toxicity); note: reference of the scale not given here

Cc1c(Cn2ccn3c(=O)cc(N4CCOCC4)nc23)cccc1C(F)(F)F [UNC10243861A]
TFE3 % (endogenous TFE3): 6.09%
DQ Intensity (SH-SY5Y cells [1]): 74.52
DQ Spot (SH-SY5Y cells [1]): 79.14
AK (SH-SY5Y cells [2]): 106.43
TFEB % (endogenous TFEB): 1.67%
Nuclear Count (SH-SY5Y cells [3]): 146.89

CC(C)(C)n1cnc2c(N)ncnc21 [UNC10225362A]
TFE3 % (endogenous TFE3): 7.46%
DQ Intensity (SH-SY5Y cells [1]): 122.93
DQ Spot (SH-SY5Y cells [1]): 124.24
AK (SH-SY5Y cells [2]): 102.90
TFEB % (endogenous TFEB): 5.16%
Nuclear Count (SH-SY5Y cells [3]): 45.84

O=C(Nc1n[nH]c2cc(-c3ccco3)ccc12)C1CC1 [SB-737447]
TFE3 % (endogenous TFE3): 9.47%
DQ Intensity (SH-SY5Y cells [1]; DQ Red BSA intensity): 79.02
DQ Spot (SH-SY5Y cells [1]; DQ Red BSA spot count): 97.06
AK (SH-SY5Y cells [2]): 119.40
TFEB % (endogenous TFEB): 10.40%
Nuclear Count (SH-SY5Y cells [3]): 114.46

COc1cccc(-c2nc(-c3ccccc3)[nH]c2-c2ccncc2)c1 [UNC10225025A]
TFE3 % (endogenous TFE3): 10.01%
DQ Intensity (SH-SY5Y cells [1]; DQ Red BSA intensity): 97.17
DQ Spot (SH-SY5Y cells [1]; DQ Red BSA spot count): 101.78
AK (SH-SY5Y cells [2]): 113.94
TFEB % (endogenous TFEB): 4.20%
Nuclear Count (SH-SY5Y cells [3]): 132.30

Cc1ccccc1Cn1ccn2c(=O)cc(N3CCOCC3)nc12 [UNC10225355A]
TFE3 % (endogenous TFE3): 15.51%
DQ Intensity (SH-SY5Y cells [1]): 95.37
DQ Spot (SH-SY5Y cells [1]): 115.18
AK (SH-SY5Y cells [2]): 91.19
TFEB % (endogenous TFEB): 2.12%
Nuclear Count (SH-SY5Y cells [3]): 89.36

Cc1nccc(-c2c(-c3ccc(F)cc3)ncn2CCCN2CCOCC2)n1.Cl [UNC10225493A]
TFE3 % (endogenous TFE3): 13.96%
DQ Intensity (SH-SY5Y cells [1]): 90.01
DQ Spot (SH-SY5Y cells [1]): 96.19
AK (SH-SY5Y cells [2]): 100.35
TFEB % (endogenous TFEB): 4.71%
Nuclear Count (SH-SY5Y cells [3]): 97.00

CC(=O)N1CCN(c2ccc(Nc3nccc(-c4sc(C(C)C)nc4-c4cccc(NS(=O)(=O)c5cccc(Cl)c5)c4)n3)cn2)CC1 [UNC10225481A]
TFE3 % (endogenous TFE3): 9.55%
DQ Intensity (SH-SY5Y cells [1]): 100.90
DQ Spot (SH-SY5Y cells [1]): 115.22
AK (SH-SY5Y cells [2]): 73.54
TFEB % (endogenous TFEB): 3.72%
Nuclear Count (SH-SY5Y cells [3]): 128.41

Clc1cc(Cl)cc(Nc2ccnc(Nc3cc(Cl)cc(Cl)c3)n2)c1 [GSK175726]
TFE3 % (endogenous TFE3): 10.08%
DQ Intensity (SH-SY5Y cells [1]; DQ Red BSA intensity): 98.51
DQ Spot (SH-SY5Y cells [1]; DQ Red BSA spot count): 117.48
AK (SH-SY5Y cells [2]): 105.62
TFEB % (endogenous TFEB): 3.77%
Nuclear Count (SH-SY5Y cells [3]): 91.70

COc1ccc(Nc2nccc(N3CCC(NC(=O)Nc4cccc(C(C)=O)c4)C3)n2)cc1 (stereo not drawn) [GSK1379731]
TFE3 % (endogenous TFE3): 14.27%
DQ Intensity (SH-SY5Y cells [1]; DQ Red BSA intensity): 109.14
DQ Spot (SH-SY5Y cells [1]; DQ Red BSA spot count): 92.48
AK (SH-SY5Y cells [2]): 78.89
TFEB % (endogenous TFEB): 9.04%
Nuclear Count (SH-SY5Y cells [3]): 122.85

O=C(Nc1n[nH]c2cc(-c3cccc(F)c3F)ccc12)C1CC1 [SB-733894]
TFE3 % (endogenous TFE3): 15.11%
DQ Intensity (SH-SY5Y cells [1]; DQ Red BSA intensity): 66.38
DQ Spot (SH-SY5Y cells [1]; DQ Red BSA spot count): 85.29
AK (SH-SY5Y cells [2]): 80.72
TFEB % (endogenous TFEB): 5.04%
Nuclear Count (SH-SY5Y cells [3]): 112.33

O=c1cc(N2CCOCC2)nc2n(Cc3ccccc3F)ccn12 [UNC10225231A]
TFE3 % (endogenous TFE3): 8.12%
DQ Intensity (SH-SY5Y cells [1]): 110.36
DQ Spot (SH-SY5Y cells [1]): 111.39
AK (SH-SY5Y cells [2]): 121.63
TFEB % (endogenous TFEB): 4.37%
Nuclear Count (SH-SY5Y cells [3]): 97.25

COc1ccc(Nc2nccc(-c3cccc(NC(=O)c4cc5cc(F)ccc5[nH]4)c3)n2)cc1 [GSK1229782]
TFE3 % (endogenous TFE3): 14.29%
DQ Intensity (SH-SY5Y cells [1]; DQ Red BSA intensity): 93.16
DQ Spot (SH-SY5Y cells [1]; DQ Red BSA spot count): 110.99
AK (SH-SY5Y cells [2]): 91.24
TFEB % (endogenous TFEB): 2.71%
Nuclear Count (SH-SY5Y cells [3]): 89.95

CCOC(=O)N1CCC(n2cnc(-c3ccc(F)cc3)c2-c2ccnc(N)n2)CC1 [UNC10225132A]
TFE3 % (endogenous TFE3): 8.29%
DQ Intensity (SH-SY5Y cells [1]): 90.15
DQ Spot (SH-SY5Y cells [1]): 96.37
AK (SH-SY5Y cells [2]): 115.58
TFEB % (endogenous TFEB): 10.30%
Nuclear Count (SH-SY5Y cells [3]): 129.88

COC(=O)Nc1nc2ccc(Oc3ccc(NC(=O)Nc4cc(C(F)(F)F)ccc4F)cc3)cc2[nH]1 [GW654607]
TFE3 % (endogenous TFE3): 33.87%
DQ Intensity (SH-SY5Y cells [1]; DQ Red BSA intensity): 53.63
DQ Spot (SH-SY5Y cells [1]; DQ Red BSA spot count): 73.16
AK (SH-SY5Y cells [2]): 90.67
TFEB % (endogenous TFEB): 5.38%
Nuclear Count (SH-SY5Y cells [3]): 81.29

Fc1ccc(-c2nc[nH]c2-c2ccncc2)cc1 [UNC10225418A]
TFE3 % (endogenous TFE3): 16.61%
DQ Intensity (SH-SY5Y cells [1]; DQ Red BSA intensity): 103.88
DQ Spot (SH-SY5Y cells [1]; DQ Red BSA spot count): 114.99
AK (SH-SY5Y cells [2]): 94.96
TFEB % (endogenous TFEB): 7.46%
Nuclear Count (SH-SY5Y cells [3]): 56.56

Fc1ccc(-c2ncn(CCCN3CCOCC3)c2-c2ccccn2)cc1 [UNC10225382A]
TFE3 % (endogenous TFE3): 18.86%
DQ Intensity (SH-SY5Y cells [1]; DQ Red BSA intensity): 121.86
DQ Spot (SH-SY5Y cells [1]; DQ Red BSA spot count): 115.12
AK (SH-SY5Y cells [2]): 83.54
TFEB % (endogenous TFEB): 3.28%
Nuclear Count (SH-SY5Y cells [3]): 93.57

Nc1ncnc2c1nc(-c1ccccc1)n2-c1ccccc1 [UNC10225340A]
TFE3 % (endogenous TFE3): 8.63%
DQ Intensity (SH-SY5Y cells [1]): 122.27
DQ Spot (SH-SY5Y cells [1]): 108.09
AK (SH-SY5Y cells [2]): 115.76
TFEB % (endogenous TFEB): 8.74%
Nuclear Count (SH-SY5Y cells [3]): 115.47

CC1=C(C(=O)Nc2cc3cn[nH]c3cc2F)C(c2ccc(C(F)(F)F)cc2)CC(=O)N1 (stereo not drawn) [UNC10225339A]
TFE3 % (endogenous TFE3): 22.61%
DQ Intensity (SH-SY5Y cells [1]): 158.90
DQ Spot (SH-SY5Y cells [1]): 127.41
AK (SH-SY5Y cells [2]): 70.62
TFEB % (endogenous TFEB): 3.31%
Nuclear Count (SH-SY5Y cells [3]): 108.36

CN(C)c1cc(-c2ccc3c(N)n[nH]c3c2)nc(N)n1 [GSK2219329]
TFE3 % (endogenous TFE3): 13.03%
DQ Intensity (SH-SY5Y cells [1]; DQ Red BSA intensity): 87.81
DQ Spot (SH-SY5Y cells [1]; DQ Red BSA spot count): 98.17
AK (SH-SY5Y cells [2]): 83.85
TFEB % (endogenous TFEB): 4.04%
Nuclear Count (SH-SY5Y cells [3]): 85.79

Cc1nn2c(=O)cc(N3CCO[C@H](C)C3)nc2n1Cc1cccc(Cl)c1Cl [UNC10225190A]
TFE3 % (endogenous TFE3): 6.51%
DQ Intensity (SH-SY5Y cells [1]): 96.99
DQ Spot (SH-SY5Y cells [1]): 93.26
AK (SH-SY5Y cells [2]): 79.35
TFEB % (endogenous TFEB): 6.05%
Nuclear Count (SH-SY5Y cells [3]): 111.47

Cl.c1ccc(Cn2ncc3cc(Nc4ncnc5ccccc45)ccc32)cc1 [UNC10225085A]
TFE3 % (endogenous TFE3): 11.00%
DQ Intensity (SH-SY5Y cells [1]; DQ Red BSA intensity): 91.33
DQ Spot (SH-SY5Y cells [1]; DQ Red BSA spot count): 107.62
AK (SH-SY5Y cells [2]): 124.83
TFEB % (endogenous TFEB): 4.60%
Nuclear Count (SH-SY5Y cells [3]): 82.39

NC(=O)c1cccc(Nc2nccc(Nc3ccc(Oc4c(Cl)cccc4Cl)c(Cl)c3)n2)c1 [GW659009]
TFE3 % (endogenous TFE3): 20.40%
DQ Intensity (SH-SY5Y cells [1]; DQ Red BSA intensity): 60.26
DQ Spot (SH-SY5Y cells [1]; DQ Red BSA spot count): 79.24
AK (SH-SY5Y cells [2]): 74.50
TFEB % (endogenous TFEB): 6.80%
Nuclear Count (SH-SY5Y cells [3]): 101.88

Cc1nnc(-c2ccc(C)c(-c3ccc(C(=O)Nc4ccc(NS(C)(=O)=O)cc4)cc3)c2)o1 [UNC10225285A]
TFE3 % (endogenous TFE3): 14.74%
DQ Intensity (SH-SY5Y cells [1]): 105.08
DQ Spot (SH-SY5Y cells [1]): 99.25
AK (SH-SY5Y cells [2]): 85.18
TFEB % (endogenous TFEB): 4.26%
Nuclear Count (SH-SY5Y cells [3]): 90.38

COc1cc(Nc2nccc(N3CCC(NC(=O)Nc4cccc(C(C)=O)c4)C3)n2)cc(OC)c1OC (stereo not drawn) [GSK1379753]
TFE3 % (endogenous TFE3): 10.72%
DQ Intensity (SH-SY5Y cells [1]; DQ Red BSA intensity): 96.48
DQ Spot (SH-SY5Y cells [1]; DQ Red BSA spot count): 93.76
AK (SH-SY5Y cells [2]): 112.38
TFEB % (endogenous TFEB): 2.90%
Nuclear Count (SH-SY5Y cells [3]): 116.36

Cc1ccccc1COc1cc(-n2cnc3cc(Cl)ccc32)sc1C(N)=O [UNC10225491A]
TFE3 % (endogenous TFE3): 6.85%
DQ Intensity (SH-SY5Y cells [1]): 119.27
DQ Spot (SH-SY5Y cells [1]): 99.65
AK (SH-SY5Y cells [2]): 190.42
TFEB % (endogenous TFEB): 9.14%
Nuclear Count (SH-SY5Y cells [3]): 71.39

COc1ccc(Nc2nccc(N3CCC(NC(=O)C(C)c4ccc(Cl)cc4)C3)n2)cc1 (stereo not drawn) [GSK1379735]
TFE3 % (endogenous TFE3): 11.71%
DQ Intensity (SH-SY5Y cells [1]; DQ Red BSA intensity): 99.92
DQ Spot (SH-SY5Y cells [1]; DQ Red BSA spot count): 94.04
AK (SH-SY5Y cells [2]): 70.53
TFEB % (endogenous TFEB): 5.13%
Nuclear Count (SH-SY5Y cells [3]): 119.80

COC(=O)c1cccc(NC(=O)NC2CCN(c3ccnc(NCc4ccc(F)cc4)n3)CC2)c1 [GSK1379860]
TFE3 % (endogenous TFE3): 10.41%
DQ Intensity (SH-SY5Y cells [1]; DQ Red BSA intensity): 146.32
DQ Spot (SH-SY5Y cells [1]; DQ Red BSA spot count): 93.58
AK (SH-SY5Y cells [2]): 178.25
TFEB % (endogenous TFEB): 6.34%
Nuclear Count (SH-SY5Y cells [3]): 118.43
